Test results from patent publication US20050026810A1, “Treatment of male sexual dysfunction” (Pfizer Inc., priority 2003, published 2005).
Values joined by “and” are separate entries in the source; they are usually repeats but may differ in a detail not shown here. Identical values can stand only once.

Columns and labels:
[1] = system: PCA-induced ejaculation in anaesthetised rats; experiment: p-chloroamphetamine (PCA)-induced ejaculation and penile erection in anaesthetised rats; type: in vivo, rat
Experimental: In order to study penile; erection and ejaculation the method used was based on the methodology taught in Yonezawa et al. (2000) Life Sciences 67, 3031-3039. For ease of reference, this methodology is described below:
Male Sprague Dawley rats, weighing 350-450 g, are used. Prior to the experiments the animals are housed in groups (2 rats per cage) under controlled 12 h light-dark cycle (lights on at 07:00), constant temperature (23±1° C.) and humidity (55±5%). They have free access to standard food pellets and water.
Rats are anesthestised with sodium pentobarbitone (50 mg/kg, i.p.) and are placed in the supine position. The penis is extruded from its sheath and gently held by a wooden applicator positioned at the base of the penis. The test compounds are administered by intravenous infusion and p-chloroamphetamine (PCA) (5-10 mg/kg) is administered i.p. immediately before the sheath retraction and the penile responses, including penile erection, redding and expansion of the penile body, glans erection, engorgement and slight flaring of the glans and cup, glans erection with intense flaring of the glans, are recorded. Latencies from PCA administration to the initial penile response and ejaculation is also measured in seconds.
The effect of a test compound on p-chloroamphetamine (PCA) induced ejaculation is also assessed by weighing the ejaculates accumulated over 30 mins. A suitable method using conscious rats is described in Renyi (1985) Neuropharmacology, Vol. 24. No. 8, pp 697-704.

[2] = target: vasopressin V1a receptors (Rattus norvegicus, UniProt P30560); conditions: cited from earlier work
oxytocin receptors = conditions: read-out: OT; cited from earlier work
[3] = Plasma concentration in the copulatory behaviour study; type: in vivo, rat; conditions: 0.05 mgkg^-1 sc, rats
[4] = system: copulatory behaviour in conscious rats; experiment: Copulatory behaviour in conscious rats (ejaculatory latency); type: in vivo, rat; conditions: 0.05 mgkg^-1 sc
Experimental: For all the sexual behavour tests, the male rats were placed in an observation arena (50-60 cm diameter), starting 5 hours into the dark cycle and observed under red ilumination. Three to four minutes after placing the male in the arena, a receptive female (ovariectomised, oestradiol benzoate/progesterone injection 48 hour before behavioural study) was introduced into the arena and the following parameters noted: • i) ejaculatory latency (EJL; time taken from addition of receptive female into the arena to ejaculation); • ii) copulatory efficiency (CE; ejaculatory latency/the number of ihtromissions to ejaculation, i.e. the number of seconds between intromissions); • iii) intromission frequency (IF; the number of intromissions to ejaculation); • iv) mount frequency (MF; the number of mounts to ejaculation); • v) post ejaculatory interval (PEI; the time taken from ejaculation to the commencement of copulatory behaviour).
Rodent copulatory behaviour is characterised by a series of mounts, with and without vaginal insertion (50-80% of mounts result in intromission [vaginal penetration]) and ejaculation occurs after 6 to 12 intromissions. Each intromission lasts a matter of seconds—it is not possible to quantify intromission length i.e. intravaginal latency. The effect of L-371257 was assessed on a number of copulatory parameters (see above). We have focused ejaculatory latency as a clinical biomarker of time taken to achieve ejaculation.

Chain of vasopressin V1a receptors (P30560 whole entry): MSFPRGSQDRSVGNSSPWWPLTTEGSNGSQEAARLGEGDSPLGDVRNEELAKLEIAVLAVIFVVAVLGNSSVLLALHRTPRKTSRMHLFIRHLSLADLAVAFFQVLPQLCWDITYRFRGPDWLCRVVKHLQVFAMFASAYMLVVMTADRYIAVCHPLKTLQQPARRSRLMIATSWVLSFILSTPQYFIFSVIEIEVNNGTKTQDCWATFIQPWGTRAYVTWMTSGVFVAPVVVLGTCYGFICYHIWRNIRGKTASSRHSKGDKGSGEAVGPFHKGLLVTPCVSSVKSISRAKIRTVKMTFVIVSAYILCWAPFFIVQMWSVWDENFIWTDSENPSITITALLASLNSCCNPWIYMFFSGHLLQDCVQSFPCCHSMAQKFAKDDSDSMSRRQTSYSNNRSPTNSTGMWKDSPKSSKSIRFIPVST

COC1CCN(Cc2nnc(C3CCN(c4ccccn4)CC3)n2Cc2ccccc2)CC1 [Compound 1, 4-[4-Benzyl-5-(4-methoxy-piperidin-1-ylmethyl)-4H-[1,2,4]triazol-3-yl]-3,4,5,6-tetrahydro-2H-[1,2′]bipyridinyl]
time taken for the rats to achieve erection ([1]; anaesthetised rats, PCA): not significantly affected | Ejaculation delayed (near maximal effect) ([1]; free plasma concentration 30.9 nM, intravenous infusion, anaesthetised rats): 100% | ejaculation and penile erection, in words ([1]; plasma conc 11.4 nM and 30.9 nM): * At both of these concentrations Compound 1 delayed ejaculation without affecting penile erection. | effect on PCA-induced ejaculation ([1]; plasma concentration of 9-31 nM, anaesthetised rats): significantly delayed

COc1cc(OC2CCN(C(C)=O)CC2)ccc1C(=O)N1CCC(N2C(=O)OCc3ccccc32)CC1 [L-371,257]
Ki [2]: 3.7 nM | Ki (oxytocin receptors): 19 nM | Plasma conc [3]: ~30 nM | other effects on copulatory behaviour [4]: no other significant effects | increase of ejaculatory latency ([4]; P<0.05 vs vehicle): 67% | Ejaculatory latency ([4]; plasma conc ~30 nM, mean ± sem, n = 8): 266 s and 266.4 ± 30.9 s
